Results published in US12264173B2 (GILEAD SCIENCES, INC., priority 2020, dated 2025).
Read-outs that look alike come from different tables or passages of the source.

Experiments:
Assay type in all cases: cell-based
RSV strain A2 = assay: microbe, parasite or virus in culture; settings: Table 3, HEp-2 cells, RSV A2, 4 days, read-out: RSV HEp-2 EC50
Procedure, shortened: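 Cytopathic-effect protection assay: HEp-2 cells (50,000/mL) infected with pre-titered RSV A2 onto 3-fold serial compound dilutions, incubated 4 days at 37° C. Cell viability read by CellTiter-Glo luminescence; percent inhibition derived against 0% and 100% virus-inhibition controls.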

RSV A2 = assay: RSV NHBE EC50 (RSV A2 antiviral assay in NHBE cells); settings: Table 3, NHBE cells, RSV A2, 4 days, read-out: RSV NHBE EC50
Procedure, shortened: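 Antiviral activity against RSV A2 was determined in NHBE cells used within 6 passages, with cell viability quantified by CellTiter-Glo after a 4-day infection.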

DENV2 replicon = assay: DENV-2 Huh-7 Rep EC50 (replicon luminescence)
Procedure, shortened: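 Huh-7 cells carrying a DENV2 replicon, 5,000 cells/well, were incubated with dosed compounds for 48 h at 37° C. EnduRen live-cell substrate was added 1.5 h before luminescence reading. EC50 came from dose-response against DMSO-only wells.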

HRV16 = HRV16 HeLa EC50 (cytopathic effect in H1-HeLa cells)
Procedure, shortened: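 H1-HeLa cells seeded one day before, given 3-fold serial compound dilutions in triplicate just prior to infection with pre-titrated virus. Incubated 96 h at 33 °C/5% CO2; protection from cytopathic effect read as viability by CellTiter-Glo luminescence, normalised to infected untreated (0%) and uninfected (100%) controls.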

[1] = human respiratory syncytial virus, HEp-2, 96 h
[2] = human respiratory syncytial virus, NHBE, 96 h
[3] = Dengue virus, DENV2, Huh-7, 48 h, read-out: DENV-2 REP Huh7 EC50, Table 3, Huh-7 DENV2 replicon cells, 48 hours
[4] = 96 h, Table 3; H1-HeLa cells, 96 h; read-out: HRV16 HeLa EC50
[5] = Dengue virus, DENV2, Huh-7, 48 h, read-out: DENV-2 REP Huh7 EC50
[6] = Table 3, Huh-7 DENV2 replicon cells, 48 hours, read-out: DENV-2 REP Huh7 EC50
[7] = Table 3; H1-HeLa cells, 96 h; read-out: HRV16 HeLa EC50

Row | SMILES | EC50 (RSV strain A2; [1]) | EC50 (RSV A2; [2]) | EC50 (DENV2 replicon; [3]) | EC50 (HRV16; [4]) | EC50 (DENV2 replicon; [5]) | EC50 (RSV strain A2) | EC50 (RSV A2) | EC50 (DENV2 replicon; [6]) | EC50 (HRV16; [7])
1 | CCC(=O)O[C@H]1[C@H](c2ccc3c(N)ncnn23)O[C@](C#N)(COP(=O)(N[C@@H](C)C(=O)OC)N[C@@H](C)C(=O)OC)[C@H]1OC(=O)CC [Example 199] | 4.11 µM | 0.235 µM | > 50 µM | 19.5 µM |  |  |  |  | 
2 | CCC(=O)O[C@H]1[C@H](c2ccc3c(N)ncnn23)O[C@](C#N)(COP(=O)(N[C@@H](C)C(=O)OCC2COC2)Oc2ccccc2)[C@H]1OC(=O)CC (stereo partly drawn) [Example 203, (2R,3S,4S,5S)-5-(4-aminopyrrolo[2,1-f][1,2,4]triazin-7-yl)-2-cyano-2-((((((S)-1-(oxetan-3-ylmethoxy)-1-oxopropan-2-yl)amino)(phenoxy)phosphoryl)oxy)methyl) tetrahydrofuran-3,4-diyl dipropionate] | 0.095 µM | 0.038 µM |  | 0.359 µM | 9.5 µM |  |  |  | 
3 | CCC(=O)O[C@H]1[C@H](c2ccc3c(N)ncnn23)O[C@](C#N)(COP(=O)(N[C@@H](C)C(=O)OC2CCC2)Oc2ccccc2)[C@H]1OC(=O)CC (stereo partly drawn) [Example 195, (2R,3S,4S,5S)-5-(4-aminopyrrolo[2,1-f][1,2,4]triazin-7-yl)-2-cyano-2-((((((S)-1-cyclobutoxy-1-oxopropan-2-yl)amino)(phenoxy)phosphoryl)oxy)methyl) tetrahydrofuran-3,4-diyl dipropionate] |  |  |  |  |  | 0.023 µM | 0.059 µM | 6.45 µM | 0.126 µM
4 | CC(C)OC(=O)[C@H](C)N[P@](=O)(OC[C@@]1(C#N)O[C@@H](c2ccc3c(NC(=O)C(C)C)ncnn23)[C@H](OC(=O)C(C)C)[C@@H]1OC(=O)C(C)C)Oc1ccccc1 [Example 106] | 0.173 µM | 0.015 µM |  | 0.805 µM | 14.6 µM |  |  |  | 
5 | CCC(=O)OC1C(c2ccc3c(N)ncnn23)OC(C#N)(COP(=O)(NC(C)C(=O)OCC2CCC2)Oc2ccccc2)C1OC(=O)CC (stereo not shown) [Example 93] |  |  |  |  |  | 0.048 µM | 0.025 µM | 12.8 µM | 0.171 µM
6 | CCC(=O)OC1[C@H](c2ccc3c(N)ncnn23)O[C@](C#N)(COP(=O)(N[C@@H](C)C(=O)OCC2CCOCC2)Oc2ccccc2)[C@H]1OC(=O)CC (stereo in doubt) [Example 107, (2R,3S,4R,5S)-5-(4-aminopyrrolo[2,1-f][1,2,4]triazin-7-yl)-2-cyano-2-((((((S)-1-oxo-1-((tetrahydro-2H-pyran-4-yl)methoxy)propan-2-yl)amino)(phenoxy)phosphoryl)oxy)methyl)tetrahydrofuran-3,4-diyl dipropionate] | 0.098 µM | 0.031 µM |  | 0.388 µM | 22.4 µM |  |  |  | 
7 | COC(=O)[C@H](C)N[P@@](=O)(OC[C@@]1(C#N)O[C@@H](c2ccc3c(N)ncnn23)[C@H](OC(=O)C(C)C)[C@@H]1OC(=O)C(C)C)Oc1ccccc1 (single isomer, unassigned) [Example 139] | 0.039 µM | 0.008 µM |  | 0.097 µM | 5.24 µM |  |  |  | 
8 | COCCOCC(=O)O[C@H]1[C@H](c2ccc3c(N)ncnn23)O[C@](C#N)(CO[P@@](=O)(N[C@@H](C)C(=O)OC(C)C)Oc2ccccc2)[C@H]1OC(=O)COCCOC [Example 161, (2R,3S,4S,5S)-5-(4-aminopyrrolo[2,1-f][1,2,4]triazin-7-yl)-2-cyano-2-((((S)-(((S)-1-isopropoxy-1-oxopropan-2-yl)amino)(phenoxy)phosphoryl)oxy)methyl) tetrahydrofuran-3,4-diyl bis(2-(2-methoxyethoxy)acetate)] | 0.151 µM | 1.16 µM |  | 1.23 µM | 22.5 µM |  |  |  | 
9 | CCCOC(=O)[C@H](C)NP(=O)(OC[C@@]1(C#N)O[C@@H](c2ccc3c(N)ncnn23)[C@H](OC(=O)C(C)C)[C@@H]1OC(=O)C(C)C)Oc1ccccc1 (single isomer, unassigned) [Example 192] |  |  |  |  |  | 0.029 µM | 0.045 µM | 8.67 µM | 0.101 µM
10 | CC(C)C(=O)O[C@H]1[C@H](c2ccc3c(N)ncnn23)O[C@](C#N)(COP(=O)(NCCOC(=O)C(C)(C)C)Oc2ccccc2)[C@H]1OC(=O)C(C)C (stereo partly drawn) [Example 97, (2R,3S,4S,5S)-5-(4-aminopyrrolo[2,1-f][1,2,4]triazin-7-yl)-2-cyano-2-(((phenoxy((2-(pivaloyloxy)ethyl)amino)phosphoryl)oxy)methyl)tetrahydrofuran-3,4-diyl bis(2-methylpropanoate)] | 0.366 µM | > 5 µM |  | 1.12 µM | 9.05 µM |  |  |  | 
11 | CCCC(=O)O[C@H]1[C@H](c2ccc3c(N)ncnn23)O[C@](C#N)(COP(=O)(N[C@@H](C)C(=O)OC)N[C@@H](C)C(=O)OC)[C@H]1OC(=O)CCC [Example 212, (2R,3S,4S,5S)-5-(4-Aminopyrrolo[2,1-f][1,2,4]triazin-7-yl)-2-(((bis(((S)-1-methoxy-1-oxopropan-2-yl)amino)phosphoryl)oxy)methyl)-2-cyanotetrahydrofuran-3,4-diyl dibutyrate] | 1.18 µM | 0.451 µM | > 71.4 µM | 6.12 µM |  |  |  |  | 
12 | COC(=O)[C@H](C)N[P@](=O)(OC[C@@]1(C#N)O[C@@H](c2ccc3c(N)ncnn23)[C@H](OC(=O)[C@@H](C)OC)[C@@H]1OC(=O)[C@@H](C)OC)Oc1ccccc1 [Example 166, (2R,3S,4S,5S)-5-(4-aminopyrrolo[2,1-f][1,2,4]triazin-7-yl)-2-cyano-2-((((S)-(((S)-1-methoxy-1-oxopropan-2-Yl)amino)(phenoxy)phosphoryl)oxy)methyl) tetrahydrofuran-3,4-diyl (2R,2′R)-bis(2-methoxypropanoate)] | 0.157 µM | 0.112 µM |  | 1.66 µM | 21.7 µM |  |  |  | 
13 | CCC(=O)O[C@H]1[C@H](c2ccc3c(N)ncnn23)O[C@](C#N)(COP(=O)(N[C@@H](C)C(=O)OC(C)C)N[C@@H](C)C(=O)OC(C)C)[C@H]1OC(=O)CC [Example 123, ((2R,3S,4R,5S)-5-(4-aminopyrrolo[2,1-f][1,2,4]triazin-7-yl)-2-cyano-3,4-dipropionatetetrahydrofuran-2-yl)methyl bis-isopropyl L-alaninate phosphate] | 2.28 µM | 0.175 µM | > 50 µM | 7.57 µM |  |  |  |  | 
14 | CC(C)C(=O)O[C@H]1[C@H](c2ccc3c(/N=C/N(C)C)ncnn23)O[C@](C#N)(COP(=O)(N[C@@H](C)C(=O)OC2CCOCC2)Oc2ccccc2)[C@H]1OC(=O)C(C)C (stereo partly drawn) [Example 218, (2R,3S,4S,5S)-2-cyano-5-(4-(((E)-(dimethylamino)methylene)amino)pyrrolo[2,1-f][1,2,4]triazin-7-yl)-2-((((((S)-1-oxo-1-((tetrahydro-2H-pyran-4-yl)oxy)propan-2-yl)amino)(phenoxy)phosphoryl)oxy)methyl) tetrahydrofuran-3,4-diyl bis(2-methylpropanoate)] |  |  |  |  |  | 0.03 µM | 0.017 µM | 5.51 µM | 0.112 µM
15 | CCCOC(=O)[C@H](C)NP(=O)(OC[C@@]1(C#N)O[C@@H](c2ccc3c(N)ncnn23)[C@H](OC(=O)CC)[C@@H]1OC(=O)CC)Oc1ccccc1 (mixture of isomers) [Example 187] | 0.024 µM | 0.017 µM |  | 0.088 µM | 5.93 µM |  |  |  | 
16 | CC(C)OC(=O)C(C)NP(=O)(OCC1(C#N)OC(c2ccc3c(N)ncnn23)C(OC(=O)C(C)C)C1OC(=O)C(C)C)Oc1ccc(C(=O)N(C)C)cc1 (single isomer, unassigned) [Example 178] |  |  |  |  |  | 0.633 µM | 0.163 µM | 53.2 µM | 1.07 µM
17 | CC(C)OC(=O)C(C)NP(=O)(OCC1(C#N)OC(c2ccc3c(N)ncnn23)C(OC(=O)C(C)C)C1OC(=O)C(C)C)Oc1ccc(C(=O)N(C)C)cc1 (single isomer, unassigned) [Example 179] |  |  |  |  |  | 0.161 µM | 0.1 µM | 29.4 µM | 0.731 µM
18 | CCC(=O)O[C@H]1[C@H](c2ccc3c(N)ncnn23)O[C@](C#N)(CO[P@@](=O)(N[C@@H](C)C(=O)OCC2CCN(CC(F)(F)F)CC2)Oc2ccccc2)[C@H]1OC(=O)CC [Example 116] |  |  |  |  |  | 0.273 µM | 0.015 µM | 19.7 µM | 0.303 µM
19 | CCC(=O)O[C@H]1[C@H](c2ccc3c(N)ncnn23)O[C@](C#N)(COP(=O)(N[C@@H](C)C(=O)OC)Oc2ccccc2)[C@H]1OC(=O)CC (stereo partly drawn) [Example 141, (2R,3S,4S,5S)-5-(4-aminopyrrolo[2,1-f][1,2,4]triazin-7-yl)-2-cyano-2-((((((S)-1-methoxy-1-oxopropan-2-yl)amino)(phenoxy)phosphoryl)oxy)methyl)tetrahydrofuran-3,4-diyl dipropionate] | 0.08 µM | 0.023 µM |  | 0.253 µM | 7.49 µM |  |  |  | 
